# Assay results taken from PubChem BioAssay AID743418 (The Scripps Research Institute Molecular Screening Center, 2014).
# Activity calls are given as the source filed them. The rule behind the calls is not given here.
# Target: Sphingosine 1-phosphate receptor 2 (Homo sapiens) (UniProt O95136)
# Experiment: S1P2 receptor agonist activity, late-stage follow-up, counter-screen for S1PR3 antagonist project, cell-based, fluorescence, dose response (AID 743418)
# Conditions: S1P2-expressing cells, agonist-mode fluorescence read-out
# Sphingosine 1-phosphate receptor 2 (Homo sapiens), sequence (O95136 whole entry, looked up): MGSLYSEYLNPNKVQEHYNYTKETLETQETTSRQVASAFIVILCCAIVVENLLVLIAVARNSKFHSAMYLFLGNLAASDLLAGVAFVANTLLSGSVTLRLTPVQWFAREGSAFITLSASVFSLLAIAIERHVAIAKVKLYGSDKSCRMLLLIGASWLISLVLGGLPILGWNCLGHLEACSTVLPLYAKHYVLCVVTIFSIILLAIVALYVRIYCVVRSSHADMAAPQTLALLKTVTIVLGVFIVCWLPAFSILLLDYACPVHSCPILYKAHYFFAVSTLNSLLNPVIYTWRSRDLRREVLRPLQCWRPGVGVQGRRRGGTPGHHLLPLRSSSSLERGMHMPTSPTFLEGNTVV
row,SMILES,EC50
1,O=C(NC(c1ccc(Cl)cc1)c1nc(-c2ccccc2)no1)c1cccc(Br)c1 (configuration not stated),> 50 µM (inactive)
2,N#Cc1ccc(C(=O)NC(c2ccc(Cl)c(Cl)c2)c2nc(-c3ccccc3)no2)cc1 (configuration not stated),> 50 µM (inactive)
3,O=C(NC(c1ccc(Cl)c(Cl)c1)c1nc(-c2ccccc2)no1)c1ccc(Cl)cc1 (configuration not stated),> 50 µM (inactive)
4,COc1ccc(C(=O)NC(c2ccccc2)c2nc(-c3ccccc3)no2)cc1 (configuration not stated),> 50 µM (inactive)
5,Cc1ccc(C(=O)NC(c2ccccc2)c2nc(-c3ccccc3)no2)cc1 (configuration not stated),> 50 µM (inactive)
6,O=C(NC(c1ccc(Br)cc1)c1nc(-c2ccccc2)no1)c1ccc(Cl)c(Cl)c1 (configuration not stated),> 50 µM (inactive)
7,O=C(NC(c1ccc(Cl)cc1)c1nc(-c2ccccc2)no1)c1ccc(Cl)c(Cl)c1 (configuration not stated),> 50 µM (inactive)
8,O=C(NC(c1cccc(Cl)c1)c1nc(-c2ccccc2)no1)c1ccc(Cl)c(Cl)c1 (configuration not stated),> 50 µM (inactive)
9,O=C(NC(c1ccc(Cl)cc1)c1nc(-c2cccc(Cl)c2)no1)c1cccc(Cl)c1 (configuration not stated),> 50 µM (inactive)
10,O=C(NC(c1ccccc1)c1nc(-c2ccccc2)no1)c1cccc(Cl)n1 (configuration not stated),> 50 µM (inactive)
11,O=C(NC(c1ccc(Cl)c(Cl)c1)c1nc(-c2ccccc2)no1)c1ccc(Cl)c(Cl)c1 (configuration not stated),> 50 µM (inactive)
12,O=C(NC(c1ccc(Cl)cc1)c1nc(-c2ccccc2)no1)c1ccc(Cl)c(Br)c1 (configuration not stated),> 50 µM (inactive)
13,O=C(NC(c1ccc(Cl)cc1)c1nc(-c2ccccn2)no1)c1cccc(Cl)c1 (configuration not stated),> 50 µM (inactive)
14,O=C(c1cccc(Cl)c1)N(CCO)C(c1ccc(Cl)c(Cl)c1)c1nc(-c2ccccc2)no1 (configuration not stated),> 50 µM (inactive)
15,O=C(NC(c1ccc(Cl)c(Cl)c1)c1nc(-c2ccccc2)no1)c1cccc(Cl)c1 (configuration not stated),> 50 µM (inactive)
16,O=C(NC(c1cccc(Cl)c1)c1nc(-c2ccccc2)no1)c1cc(Cl)cc(Cl)c1 (configuration not stated),> 50 µM (inactive)
17,O=C(NC(c1nc(-c2ccccc2)no1)C1CCOCC1)c1ccc(Cl)c(Cl)c1 (configuration not stated),> 50 µM (inactive)
18,O=C(NC(c1nc(-c2ccccc2)no1)C1CCCCC1)c1ccc(Cl)c(Cl)c1 (configuration not stated),> 50 µM (inactive)

# Now from value to compound:
row,EC50,SMILES
1,> 50 µM (inactive),CCc1ccc(C(NC(=O)c2cccc(Cl)c2)c2nc(-c3ccccc3)no2)cc1 (configuration not stated)
2,> 50 µM (inactive),O=C(NC(c1cccc(Cl)c1)c1nc(-c2ccccc2)no1)c1cccc(Cl)c1 (configuration not stated)
3,> 50 µM (inactive),O=C(NC(c1ccccc1)c1nc(-c2ccccc2)no1)c1cccc(Br)c1 (configuration not stated)
4,> 50 µM (inactive),O=C(NC(c1ccc(Cl)cc1)c1nc(-c2ccccc2)no1)c1cccc(Cl)c1 (configuration not stated)
5,> 50 µM (inactive),O=C(NC(c1ccccc1)c1nc(-c2ccccc2)no1)c1cccc(Cl)c1 (configuration not stated)
6,> 50 µM (inactive),O=C(NC(Cc1ccccc1)c1nc(-c2ccccc2)no1)c1cccc(Cl)c1 (configuration not stated)
7,> 50 µM (inactive),O=C(NC(c1ccc(Cl)c(Cl)c1)c1nc(-c2ccccc2)no1)c1ccccc1 (configuration not stated)
8,> 50 µM (inactive),Cc1ccc(C(NC(=O)c2cccc(Cl)c2)c2nc(-c3ccccc3)no2)cc1 (configuration not stated)
9,> 50 µM (inactive),O=C(NC(c1ccccc1)c1nc(-c2ccccc2)no1)c1ccc(Cl)cc1 (configuration not stated)
